Measured values published in ChEMBL document CHEMBL3734717, “New INH-pyrazole analogs: Design, synthesis and evaluation of antitubercular and antibacterial activity” (Bioorg Med Chem Lett, 2015).
In brackets after ≈: the same amount, converted by molar mass. Activity calls are given as the source filed them. The rule behind the calls is not given here.

Key:
[1] = tested on: Escherichia coli; assay: Antibacterial activity against Escherichia coli assessed as zone of inhibition at 50 ug/ml incubated for 18-24 hrs at 37 degC by disc diffusion method; assay type: functional; conditions: for zone of inhibition at 50 µg/mL: read-out: IZ
[2] = tested on: Mycobacterium tuberculosis; assay: Antitubercular activity against Mycobacterium tuberculosis H37Rv assessed as inhibition of cell growth after 5 days by microplate alamar blue assay; assay type: functional; conditions: 120 h
[3] = tested on: Escherichia coli; assay: Antibacterial activity against Escherichia coli assessed as zone of inhibition at 75 ug/ml incubated for 18-24 hrs at 37 degC by disc diffusion method; assay type: functional; conditions: for zone of inhibition at 75 µg/mL: read-out: IZ
[4] = tested on: Staphylococcus aureus; assay: Antibacterial activity against Staphylococcus aureus assessed as zone of inhibition at 50 ug/ml incubated for 18-24 hrs at 37 degC by disc diffusion method; assay type: functional; conditions: read-out: IZ
[5] = tested on: Pseudomonas aeruginosa; assay: Antibacterial activity against Pseudomonas aeruginosa assessed as zone of inhibition at 75 ug/ml incubated for 18-24 hrs at 37 degC by disc diffusion method; assay type: functional; conditions: for zone of inhibition at 75 µg/mL: read-out: IZ
[6] = tested on: Pseudomonas aeruginosa; assay: Antibacterial activity against Pseudomonas aeruginosa assessed as zone of inhibition at 50 ug/ml incubated for 18-24 hrs at 37 degC by disc diffusion method; assay type: functional; conditions: for zone of inhibition at 50 µg/mL: read-out: IZ
[7] = tested on: Staphylococcus aureus; assay: Antibacterial activity against Staphylococcus aureus assessed as zone of inhibition at 75 ug/ml incubated for 18-24 hrs at 37 degC by disc diffusion method; assay type: functional; conditions: read-out: IZ
[8] = Selectivity index, ratio of IC50 for African green monkey Vero cells to MIC for Mycobacterium tuberculosis H37Rv; assay type: toxicity, cell-based; conditions: read-out: Selectivity Index
[9] = tested on: Vero; assay: Cytotoxicity against African green monkey Vero cells assessed as growth inhibition after 3 days by MTT assay; assay type: cell-based; conditions: Chlorocebus sabaeus, 72 h
[10] = Cytotoxicity against African green monkey Vero cells assessed as growth inhibition at 62.5 ug/ml after 3 days by MTT assay; assay type: cell-based; conditions: chlorocebus sabaeus, read-out: GI

## O=C(c1ccccc1)N(/N=C/c1c[nH]nc1-c1cccc(Cl)c1)C(=O)c1ccncc1
[1]
  inhibition zone (IZ): inactive
[2]
  MIC: 116 µM (≈ 50 µg/mL)
[3]
  inhibition zone (IZ): inactive
[4]
  zone of inhibition at 50 µg/mL: 11 mm
[5]
  inhibition zone (IZ): inactive
[6]
  inhibition zone (IZ): inactive
[7]
  zone of inhibition at 75 µg/mL: 13 mm

## O=C(c1ccncc1)N(/N=C/c1c[nH]nc1-c1ccc(Cl)cc1)C(=O)c1ccc(CCl)cc1
[1]
  zone of inhibition at 50 µg/mL: 15 mm
[2]
  MIC: 13.1 µM (≈ 6.27 µg/mL)
[8]
  selectivity ratio: > 160
[9]
  IC50: > 1000 µg/mL
[3]
  zone of inhibition at 75 µg/mL: 19 mm
[4]
  zone of inhibition at 50 µg/mL: 13 mm
[5]
  zone of inhibition at 75 µg/mL: 20 mm
[6]
  zone of inhibition at 50 µg/mL: 18 mm
[10]
  inhibition at 72 h, 62.5 ug/ml: 12%
[7]
  zone of inhibition at 75 µg/mL: 16 mm

## O=C(c1ccncc1)N(/N=C/c1c[nH]nc1-c1cccc(Cl)c1)C(=O)c1ccc([N+](=O)[O-])cc1
[1]
  zone of inhibition at 50 µg/mL: 13 mm
[2]
  MIC: 26.3 µM (≈ 12.5 µg/mL)
[3]
  zone of inhibition at 75 µg/mL: 15 mm
[4]
  zone of inhibition at 50 µg/mL: 14 mm
[5]
  zone of inhibition at 75 µg/mL: 14 mm
[6]
  zone of inhibition at 50 µg/mL: 11 mm
[7]
  zone of inhibition at 75 µg/mL: 17 mm

## O=C(c1ccccc1)N(/N=C/c1c[nH]nc1-c1ccc(Cl)cc1)C(=O)c1ccncc1
[1]
  inhibition zone (IZ): inactive
[2]
  MIC: 116 µM (≈ 50 µg/mL)
[3]
  inhibition zone (IZ): inactive
[4]
  zone of inhibition at 50 µg/mL: 9 mm
[5]
  zone of inhibition at 75 µg/mL: 12 mm
[6]
  zone of inhibition at 50 µg/mL: 10 mm
[7]
  zone of inhibition at 75 µg/mL: 11 mm

## COc1ccc(C(=O)N(/N=C/c2c[nH]nc2-c2ccc(Cl)cc2)C(=O)c2ccncc2)cc1
[1]
  zone of inhibition at 50 µg/mL: 7 mm
[2]
  MIC: 109 µM (≈ 50 µg/mL)
[3]
  zone of inhibition at 75 µg/mL: 9 mm
[4]
  zone of inhibition at 50 µg/mL: 10 mm
[5]
  zone of inhibition at 75 µg/mL: 13 mm
[6]
  zone of inhibition at 50 µg/mL: 10 mm
[7]
  zone of inhibition at 75 µg/mL: 12 mm

## O=C(O)c1cn(C2CC2)c2cc(N3CCNCC3)c(F)cc2c1=O [CIPROFLOXACIN]
[1]
  zone of inhibition at 50 µg/mL: 27 mm
[3]
  zone of inhibition at 75 µg/mL: 32 mm
[4]
  zone of inhibition at 50 µg/mL: 21 mm
[5]
  zone of inhibition at 75 µg/mL: 21 mm
[6]
  zone of inhibition at 50 µg/mL: 18 mm
[7]
  zone of inhibition at 75 µg/mL: 26 mm

## CC[C@@H](CO)NCCN[C@@H](CC)CO [ETHAMBUTOL]
[2]
  MIC: 15.3 µM (≈ 3.13 µg/mL)

## Cc1ccc(C(=O)N(/N=C/c2c[nH]nc2-c2ccc(Cl)cc2)C(=O)c2ccncc2)cc1
[1]
  zone of inhibition at 50 µg/mL: 12 mm
[2]
  MIC: 113 µM (≈ 50 µg/mL)
[3]
  zone of inhibition at 75 µg/mL: 14 mm
[4]
  zone of inhibition at 50 µg/mL: 17 mm
[5]
  zone of inhibition at 75 µg/mL: 15 mm
[6]
  zone of inhibition at 50 µg/mL: 11 mm
[7]
  zone of inhibition at 75 µg/mL: 20 mm

## COc1ccc(C(=O)N(/N=C/c2c[nH]nc2-c2cccc(Cl)c2)C(=O)c2ccncc2)cc1OC
[1]
  inhibition zone (IZ): inactive
[2]
  MIC: 102 µM (≈ 50 µg/mL)
[3]
  inhibition zone (IZ): inactive
[4]
  zone of inhibition at 50 µg/mL: 8 mm
[5]
  inhibition zone (IZ): inactive
[6]
  inhibition zone (IZ): inactive
[7]
  zone of inhibition at 75 µg/mL: 10 mm

## O=C(c1ccncc1)N(/N=C/c1c[nH]nc1-c1cccc(Cl)c1)C(=O)c1ccccc1Cl
[1]
  zone of inhibition at 50 µg/mL: 14 mm
[2]
  MIC: 1.7 µM (≈ 0.789 µg/mL)
[8]
  selectivity ratio: 642
[9]
  IC50: 513 µg/mL (≈ 1110 µM)
[3]
  zone of inhibition at 75 µg/mL: 18 mm
[4]
  zone of inhibition at 50 µg/mL: 13 mm
[5]
  zone of inhibition at 75 µg/mL: 16 mm
[6]
  zone of inhibition at 50 µg/mL: 12 mm
[10]
  inhibition at 72 h, 62.5 ug/ml: 14.9%
[7]
  zone of inhibition at 75 µg/mL: 15 mm

## O=C(N/N=C/c1c[nH]nc1-c1ccc(Cl)cc1)c1ccncc1
[1]
  zone of inhibition at 50 µg/mL: 14 mm
[2]
  MIC: 38.4 µM (≈ 12.5 µg/mL)
[3]
  zone of inhibition at 75 µg/mL: 16 mm
[4]
  zone of inhibition at 50 µg/mL: 16 mm
[5]
  zone of inhibition at 75 µg/mL: 18 mm
[6]
  zone of inhibition at 50 µg/mL: 14 mm
[7]
  zone of inhibition at 75 µg/mL: 19 mm

## Cc1ccc(C(=O)N(/N=C/c2c[nH]nc2-c2cccc(Cl)c2)C(=O)c2ccncc2)cc1
[1]
  zone of inhibition at 50 µg/mL: 8 mm
[2]
  MIC: 113 µM (≈ 50 µg/mL)
[3]
  zone of inhibition at 75 µg/mL: 11 mm
[4]
  zone of inhibition at 50 µg/mL: 10 mm
[5]
  zone of inhibition at 75 µg/mL: 10 mm
[6]
  zone of inhibition at 50 µg/mL: 8 mm
[7]
  zone of inhibition at 75 µg/mL: 12 mm

## O=C(c1ccncc1)N(/N=C/c1c[nH]nc1-c1ccc(Cl)cc1)C(=O)c1ccc([N+](=O)[O-])cc1
[1]
  zone of inhibition at 50 µg/mL: 18 mm
[2]
  MIC: 26.3 µM (≈ 12.5 µg/mL)
[3]
  zone of inhibition at 75 µg/mL: 20 mm
[4]
  zone of inhibition at 50 µg/mL: 17 mm
[5]
  zone of inhibition at 75 µg/mL: 17 mm
[6]
  zone of inhibition at 50 µg/mL: 15 mm
[7]
  zone of inhibition at 75 µg/mL: 19 mm

## COc1ccc(C(=O)N(/N=C/c2c[nH]nc2-c2ccc(Cl)cc2)C(=O)c2ccncc2)cc1OC
[1]
  zone of inhibition at 50 µg/mL: 6 mm
[2]
  MIC: 102 µM (≈ 50 µg/mL)
[3]
  zone of inhibition at 75 µg/mL: 9 mm
[4]
  zone of inhibition at 50 µg/mL: 8 mm
[5]
  zone of inhibition at 75 µg/mL: 11 mm
[6]
  zone of inhibition at 50 µg/mL: 9 mm
[7]
  zone of inhibition at 75 µg/mL: 10 mm

## O=C(c1ccncc1)N(/N=C/c1c[nH]nc1-c1ccc(Cl)cc1)C(=O)c1ccc(Cl)cc1
[1]
  zone of inhibition at 50 µg/mL: 19 mm
[2]
  MIC: 53.8 µM (≈ 25 µg/mL)
[3]
  zone of inhibition at 75 µg/mL: 24 mm
[4]
  zone of inhibition at 50 µg/mL: 21 mm
[5]
  zone of inhibition at 75 µg/mL: 21 mm
[6]
  zone of inhibition at 50 µg/mL: 18 mm
[7]
  zone of inhibition at 75 µg/mL: 24 mm

## NNC(=O)c1ccncc1 [ISONIAZID]
[2]
  MIC: 0.7 µM (≈ 0.096 µg/mL)

## O=C(c1ccncc1)N(/N=C/c1c[nH]nc1-c1cccc(Cl)c1)C(=O)c1ccc(Cl)cc1
[1]
  zone of inhibition at 50 µg/mL: 21 mm
[2]
  MIC: 3.4 µM (≈ 1.58 µg/mL)
[8]
  selectivity ratio: > 625
[9]
  IC50: > 1000 µg/mL
[3]
  zone of inhibition at 75 µg/mL: 25 mm
[4]
  zone of inhibition at 50 µg/mL: 18 mm
[5]
  zone of inhibition at 75 µg/mL: 21 mm
[6]
  zone of inhibition at 50 µg/mL: 19 mm
[10]
  inhibition at 72 h, 62.5 ug/ml: 10.5%
[7]
  zone of inhibition at 75 µg/mL: 23 mm

## NC(=O)c1cnccn1 [PYRAZINAMIDE]
[2]
  MIC: 406 µM (≈ 50 µg/mL)

## COc1ccc(C(=O)N(/N=C/c2c[nH]nc2-c2cccc(Cl)c2)C(=O)c2ccncc2)cc1
[1]
  zone of inhibition at 50 µg/mL: 9 mm
[2]
  MIC: 109 µM (≈ 50 µg/mL)
[3]
  zone of inhibition at 75 µg/mL: 11 mm
[4]
  zone of inhibition at 50 µg/mL: 7 mm
[5]
  zone of inhibition at 75 µg/mL: 14 mm
[6]
  zone of inhibition at 50 µg/mL: 11 mm
[7]
  zone of inhibition at 75 µg/mL: 10 mm

## O=C(c1ccncc1)N(/N=C/c1c[nH]nc1-c1cccc(Cl)c1)C(=O)c1ccc(CCl)cc1
[1]
  zone of inhibition at 50 µg/mL: 14 mm
[2]
  MIC: 52.3 µM (≈ 25 µg/mL)
[3]
  zone of inhibition at 75 µg/mL: 16 mm
[4]
  zone of inhibition at 50 µg/mL: 14 mm
[5]
  zone of inhibition at 75 µg/mL: 20 mm
[6]
  zone of inhibition at 50 µg/mL: 18 mm
[7]
  zone of inhibition at 75 µg/mL: 17 mm

## O=C(c1ccncc1)N(/N=C/c1c[nH]nc1-c1ccc(Cl)cc1)C(=O)c1ccccc1Cl
[1]
  zone of inhibition at 50 µg/mL: 16 mm
[2]
  MIC: 53.8 µM (≈ 25 µg/mL)
[3]
  zone of inhibition at 75 µg/mL: 19 mm
[4]
  zone of inhibition at 50 µg/mL: 14 mm
[5]
  zone of inhibition at 75 µg/mL: 19 mm
[6]
  zone of inhibition at 50 µg/mL: 15 mm
[7]
  zone of inhibition at 75 µg/mL: 18 mm

## O=C(c1ccncc1)N(/N=C/c1c[nH]nc1-c1cccc(Cl)c1)C(=O)c1ccc(F)cc1
[1]
  zone of inhibition at 50 µg/mL: 12 mm
[2]
  MIC: 3.6 µM (≈ 1.61 µg/mL)
[8]
  selectivity ratio: > 625
[9]
  IC50: > 1000 µg/mL
[3]
  zone of inhibition at 75 µg/mL: 14 mm
[4]
  zone of inhibition at 50 µg/mL: 13 mm
[5]
  zone of inhibition at 75 µg/mL: 17 mm
[6]
  zone of inhibition at 50 µg/mL: 13 mm
[10]
  inhibition at 72 h, 62.5 ug/ml: 17.8%
[7]
  zone of inhibition at 75 µg/mL: 16 mm

## O=C(c1ccncc1)N(/N=C/c1c[nH]nc1-c1ccc(Cl)cc1)C(=O)c1ccc(F)cc1
[1]
  zone of inhibition at 50 µg/mL: 17 mm
[2]
  MIC: 112 µM (≈ 50 µg/mL)
[3]
  zone of inhibition at 75 µg/mL: 19 mm
[4]
  zone of inhibition at 50 µg/mL: 14 mm
[5]
  zone of inhibition at 75 µg/mL: 17 mm
[6]
  zone of inhibition at 50 µg/mL: 14 mm
[7]
  zone of inhibition at 75 µg/mL: 17 mm
